The text below walks through data of ChEMBL document CHEMBL5385849, “Discovery of 1-hydroxy-2-methylquinolin-4(1H)-one derivatives as new cytochrome bd oxidase inhibitors for tuberculosis therapy” (Eur J Med Chem, 2023).

For the assay, the system named is Mycobacterium tuberculosis. Briefly: Inhibition of Mycobacterium tuberculosis harboring cydAB mutant inverted-membrane vesicle cytochrome bd oxidase assessed as reduction in oxygen consumption rate at 10 uM measured upto 4 days by Methylene blue dye based assay. The class given is cell membranes. The following applies: time <= 4.0 day.

Structures are written as SMILES.

For the compound `Cc1c(Cc2ccc(OC(F)(F)F)cc2)c(=O)c2ccccc2n1O`, the inhibition (commonly the drop in the measured response relative to a control, in per cent) stood at 82%. With `CC(C)=CCC/C(C)=C/CC/C(C)=C/Cc1c(C)[nH]c2ccccc2c1=O` [AURACHIN D], the inhibition was determined as 55%.
